From patent EP1247803A2, “Indolinone compounds suitable for modulation of protein kinases” (Sugen, Inc., priority 1996, dated 1998)

Experiments:
[1] = biological target: T1, EGFR (Homo sapiens, UniProt P00533); assay: EGFR ELISA assay (in vitro kinase activity, EGFR captured from A431 cell lysate); assay type: biochemical; set-up: concentration or dose not given beside the values
T1 construct: Add 7 ug A431 cell lysate per well (EGFR source); endogenous in cells; host or cells: A431
Description: To provide a consistent method for measuring the in vitro kinase activity of the EGFR in an Enzyme-linked immunosorbent assay (Elisa).
Scope. The following protocol describes the procedures used to analyze protein tyrosine kinase activity on the EGFR in an Elisa. The procedure also describes the protocol for the initial screening of drugs for inhibition or activation of protein tyrosine kinase activity.
Reagents and Supplies. • 1. […] 05-101 monoclonal anti-EGFR antibody (commercially available from UB1) -80° C, 1 ml aliquots • 3. […] TBST Buffer Formulation: 50 mM Tris pH 7.2 150 mM NaCl 0.1% Triton X-100 • 5. Blocking Buffer Formulation: 5% Carnation Instant Milk in PBS • 6. A431 cell lysate A431 cells are available from a variety of commercial sources and may be used lysed using conventional methods known to those skilled in the art or as described for lysis of the 3T3 cells in the EGF cellular assay described herein. -80° C, 1 ml aliquots • 7. TBS Buffer Formulation: 50 mM Tris pH 7.2 150 mM NaCl • 8. […] NUNC 96-well V bottom polypropylene plates Applied Scientific Catalog # AS-72092 • 11. EDTA Formulation: 200 mM EDTA pH 8.0 • 12. […] Goat anti-rabbit IgG peroxidase conjugate Biosource Catalog # ALI0404 • 14. ABTS Solution Formulation: 100 mM Citric Acid (anhydrous) 250 mM Na2HPO4 pH 4.0 0.5 mg/ml ABTS (2,2'-azino-bis(3-ethylbenzthiazoline-6-sulfonic acid) (Sigma Catalog # A-1888) Keep solution in dark at 4 C until ready to use • 15. Hydrogen peroxide 30% solution Fisher Catalog # H325 Store in the dark at 4 C until ready to use • 16. ABTS/H2O2 Formulation: 15 mls ABTS solution 2 ul H2O2 Prepare 5 minutes before use and room temperature • 17. 0.2 M HCL stock in H2O Procedure. • 1. Coat Corning 96-well elisa plates with 0.5 ug per well 05-101 antibody. Bring final volume to 100 ul per well with PBS. Coat plates overnight at 4° C. • 2. Remove unbound 05-101 from wells by inverting plate to remove liquid. Wash 1x with distilled H2O by filling wells Pat the plate on a paper towel to remove excess liquid. • 3. Block plates with 5% milk in PBS. 150 ul per well. Incubate plate 30 minutes while shaking on a microtiter plate shaker. • 4. Wash plate 3x with dionized water, then once with TBST • 5. Add 7 ug A431 cell lysate per well (EGFR source). Add PBS to final volume of 100 ul per well Incubate 30 minutes while shaking. • 6. Wash as described in step 4. • 7. At this point, drugs or extracts are added to the wells. Dilute drugs/extracts 1:100 (unless specified otherwise) in TBS + 10% DMSO in 96-well polypropylene plates. Add 120 ul TBS to ELISA plate containing captured EGFR. Add 13.5 ul diluted drugs/extracts to ELISA plate. […] Incubate plate 30 minutes while shaking. • 8. […] (150 ul final volume in well with 3 uM ATP/5 mM MnCl2 final concentration in well.) Incubate 5 minutes while shaking vigorously. *NOTE: It is critical that ATP/MnCl2 phosphorylates the receptor for 5 minutes only. It is best to add the ATP/MnCl2 with an 12 channel pipettor 1 row at a time leaving 20 seconds between each row so that the reaction may be stopped with EDTA exactly 5 minutes later (this depends on the number of plates being phosphorylated in one batch). Shake between each addition. • 9. After 5 minutes, to stop reaction, add 16.5 ul of 200 mM EDTA pH 8.0 for 20 mM final in well, shaking continuously between each addition. This is done using the same timing method as above. After last row has received EDTA, shake plate an additional minute. • 10. Wash 4x with deionized water, twice with TBST. • 11. Add rabbit polyclonal anti-phosphotyrosine serum. Dilute 1:3000 in TBST. Add 100 ul per well. Incubate 30-45 minutes while shaking. • 12. Wash as described above in step 4. • 13. Add BioSource anti-rabbit peroxidase conjugate antibody. Dilute 1:2000 in TBST. Add 100 ul per well. Incubate 30 minutes while shaking. • 14. Wash as described in step 4. • 15. Add 100 ul of ABTS/H2O2 solution to well. Incubate 5 to 10 minutes while shaking. Remove bubbles • 16. […]

[2] = biological target: PDGF-R (Homo sapiens, UniProt P09619); assay: PDGF-R ELISA; assay type: cell-based
PDGF-R, sequence (P09619 33-1106, species assumed): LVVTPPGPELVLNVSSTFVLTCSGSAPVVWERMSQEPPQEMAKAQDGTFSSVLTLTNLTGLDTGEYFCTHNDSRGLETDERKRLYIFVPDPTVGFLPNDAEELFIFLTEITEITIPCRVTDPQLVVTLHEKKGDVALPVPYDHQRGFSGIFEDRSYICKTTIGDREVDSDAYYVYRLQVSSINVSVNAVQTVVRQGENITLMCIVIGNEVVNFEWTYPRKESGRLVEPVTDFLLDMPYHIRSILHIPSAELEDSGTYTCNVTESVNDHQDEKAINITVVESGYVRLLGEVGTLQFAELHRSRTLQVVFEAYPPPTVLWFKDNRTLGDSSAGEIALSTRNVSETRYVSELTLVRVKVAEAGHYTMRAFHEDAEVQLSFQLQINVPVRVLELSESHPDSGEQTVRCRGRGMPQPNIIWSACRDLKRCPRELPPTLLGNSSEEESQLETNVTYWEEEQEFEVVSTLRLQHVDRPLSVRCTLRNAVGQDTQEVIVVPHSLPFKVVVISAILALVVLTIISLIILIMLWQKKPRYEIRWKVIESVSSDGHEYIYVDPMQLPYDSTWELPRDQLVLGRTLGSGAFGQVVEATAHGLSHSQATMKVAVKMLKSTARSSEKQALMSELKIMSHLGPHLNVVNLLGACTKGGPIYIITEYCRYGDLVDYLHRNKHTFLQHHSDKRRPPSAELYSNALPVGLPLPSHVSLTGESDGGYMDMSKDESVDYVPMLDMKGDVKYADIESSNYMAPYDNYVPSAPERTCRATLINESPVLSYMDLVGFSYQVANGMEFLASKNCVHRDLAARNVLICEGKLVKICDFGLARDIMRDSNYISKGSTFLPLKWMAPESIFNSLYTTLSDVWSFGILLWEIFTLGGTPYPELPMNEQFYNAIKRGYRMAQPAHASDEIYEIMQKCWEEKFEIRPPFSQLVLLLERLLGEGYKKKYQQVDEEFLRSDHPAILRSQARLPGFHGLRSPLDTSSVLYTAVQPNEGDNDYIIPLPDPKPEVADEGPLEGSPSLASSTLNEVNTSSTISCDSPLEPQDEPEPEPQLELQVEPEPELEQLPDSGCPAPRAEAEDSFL
Description: A PDGF-R ELISA is described in International Patent Publication No. WO 96/40116, published December 19, 1996 by Tang et al.

T1 sequence (P00533 25-1210): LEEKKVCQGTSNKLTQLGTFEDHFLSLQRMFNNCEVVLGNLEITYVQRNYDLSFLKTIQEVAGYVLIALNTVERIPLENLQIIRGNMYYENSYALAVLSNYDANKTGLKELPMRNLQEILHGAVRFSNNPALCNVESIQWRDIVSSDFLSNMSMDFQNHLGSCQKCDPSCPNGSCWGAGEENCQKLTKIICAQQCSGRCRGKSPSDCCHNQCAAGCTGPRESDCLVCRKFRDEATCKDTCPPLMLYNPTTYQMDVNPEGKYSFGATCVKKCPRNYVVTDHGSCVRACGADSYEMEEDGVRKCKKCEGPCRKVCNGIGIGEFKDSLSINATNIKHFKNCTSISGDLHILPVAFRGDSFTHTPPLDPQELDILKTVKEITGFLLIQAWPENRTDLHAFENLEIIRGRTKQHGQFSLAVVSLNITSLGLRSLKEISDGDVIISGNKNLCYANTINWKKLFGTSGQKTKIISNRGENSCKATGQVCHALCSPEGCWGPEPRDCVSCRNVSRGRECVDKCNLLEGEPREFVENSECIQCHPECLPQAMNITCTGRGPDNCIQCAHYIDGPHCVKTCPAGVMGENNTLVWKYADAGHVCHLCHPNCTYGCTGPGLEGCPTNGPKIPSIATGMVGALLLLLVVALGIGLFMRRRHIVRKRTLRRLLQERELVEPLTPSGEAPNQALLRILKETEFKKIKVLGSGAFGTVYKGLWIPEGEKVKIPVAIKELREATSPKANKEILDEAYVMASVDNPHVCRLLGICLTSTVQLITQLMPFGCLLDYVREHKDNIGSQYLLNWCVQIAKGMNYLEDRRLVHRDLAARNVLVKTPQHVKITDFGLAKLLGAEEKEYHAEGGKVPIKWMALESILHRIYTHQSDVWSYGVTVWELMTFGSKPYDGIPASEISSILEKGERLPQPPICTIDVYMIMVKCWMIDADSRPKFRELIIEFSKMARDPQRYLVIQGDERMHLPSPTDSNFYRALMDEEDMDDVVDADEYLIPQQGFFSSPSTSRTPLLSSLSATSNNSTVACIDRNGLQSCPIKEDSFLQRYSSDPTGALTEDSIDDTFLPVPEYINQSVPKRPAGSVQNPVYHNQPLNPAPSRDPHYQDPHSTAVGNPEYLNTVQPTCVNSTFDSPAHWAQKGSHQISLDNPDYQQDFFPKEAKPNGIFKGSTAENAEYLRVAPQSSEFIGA

| SMILES | Biochem EGFR %Inhibition [1] [%] | PDGF Kinase %Inhibition [2] [%] |
| --- | --- | --- |
| C=C(C)C1CC=C(C=C2C(=O)Nc3ccc(S(=O)(=O)NC)cc32)CC1 (centres unmarked) [10731/D04] | 15.8 | 6.5 |
| CN1C(=O)C(=C2C(=O)Nc3ccc(S(=O)(=O)Nc4ccc(C(F)(F)F)cc4)cc32)c2ccccc21 [10731/E10] | 25.1 | 21.7 |
| Cc1cc2occ(C=C3C(=O)Nc4ccc(S(=O)(=O)N5CCOCC5)cc43)c(=O)c2cc1C [10731/F03] | 8.4 | 11.8 |
| CNS(=O)(=O)c1ccc2c(c1)C(=Cc1cc(Br)c(OC)c(C(C)(C)C)c1)C(=O)N2 [10732/D07] | -19.1 | -3.8 |
| Cc1ccc2occ(C=C3C(=O)Nc4ccc(CCCl)cc43)c(=O)c2c1 [10731/G06] | 2.3 | -0.6 |
| CC(C)c1cc(C=C2C(=O)Nc3c(Br)cc(Br)cc32)cc(C(C)C)c1Oc1ccccc1 [10732/A04] | -10.6 | -9.4 |
| CCn1c2ccccc2c2cc(C=C3C(=O)Nc4ccc(S(=O)(=O)N5CCOCC5)cc43)ccc21 [10731/F02] | 17.7 | 14.1 |
| CC(C)c1ccc2occ(C=C3C(=O)Nc4ccc(S(=O)(=O)N5CCOCC5)cc43)c(=O)c2c1 [10731/F05] | 19.5 | 20.3 |
| CC(C)(C)c1cc(C=C2C(=O)Nc3ccc(I)cc32)ccc1OCc1ccccc1 [10732/B06] | 12.8 | -12.4 |
| COc1c(I)cc(C=C2C(=O)Nc3ccc(I)cc32)cc1C(C)(C)C [10732/B11] | 9.3 | 70.9 |
